Results taken from patent US20180078576A1, “SULPHATED XYLANS FOR TREATMENT OR PROPHYLAXIS OF RESPIRATORY DISEASES” (Paradigm Biopharmaceuticals Limited, priority 2007, published 2018).

How the values were obtained:
IL-4 = target: T1, IL-4 (Homo sapiens, UniProt P05112); assay: IL-4 dependent TF-1.8 cell proliferation (luciferase); type: cell-based
T1 construct: made in house
T1 sequence (P05112 25-153): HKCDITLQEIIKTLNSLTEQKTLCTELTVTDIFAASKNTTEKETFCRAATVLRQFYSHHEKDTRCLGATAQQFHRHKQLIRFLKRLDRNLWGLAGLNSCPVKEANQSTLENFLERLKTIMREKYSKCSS
Source text: PPS inhibited the proliferation of a human IL-4 responsive cell line. This occurs at very low doses and is not due to a toxic effect of the pentosan polysulfate because other, similarly sulfated polysaccharides, at the same concentrations of IL-4 and polysaccharide have no effect. These experiments utilize the TF-1.8 cells. TF-1.8 cells are a subclone of the TF-1 cells that have been selected for growth in IL-4 or IL-5. TF-1 cells were originally established from a bone marrow sample from a person with severe pancytopenia. These cells are dependent on IL-3 or GM-CSF for long term growth and are responsive to a variety of cytokines including IL-4, […].
TF-1.8 cells have been transfected with the firefly luciferase gene contained in the expression vector, pPGK-puromycin-luciferase (Coombe et al, 1998, supra). […] The cells are counted with a Coulter Z2 Particle Counter and Size Analyzer (Coulter Electronics, England) and routinely 2.5×10^4 cells are added to microplate wells that contain either no IL-4 (negative control) or various dilutions of IL-4. When the effect of PPS, or other sulfated polysaccharides is to be measured, the wells also contain various concentrations of these molecules. […]
The size of the sulfated xylose polysaccharides is also an important component of its anti-IL-4 activity. […] Light emissions are detected on a Victor 1420 Multi-label counter (Wallac, Turku, Finland). […]

[1] = tested on: Guinea pigs sensitized to OVA and challenged with inhaled OVA; assay: Second guinea pig asthma model, parameters 8 hours after OVA inhalation; type: in vivo
Description: A slightly different animal model was also examined. In this model Guinea pigs were sensitized to OVA twice by an intraperitoneal injection of 0.5 ml saline containing 20 mg Al(OH)3 and 20 μg OVA. The sensitizations are performed on days 0 and 7. Three weeks after the last sensitization, animals were pre-treated with either vehicle or drugs 30 min prior to inhalation of OVA (at 10 mg/ml) for 6 min (allergen challenge). For the negative control, animals received either sensitization and challenge with saline or sensitization with saline and challenge with OVA. Animals were terminated and all parameters measured 8 hours after the provocation. Vehicle or drugs were administered intra-tracheally, 1 ml/kg body weight, 30 min before the intra-tracheal challenge with OVA. The vehicle for compounds was saline. Budesonide as the reference compound was dissolved in the vehicle at concentrations of 1 mg/ml. To measure airway resistance (RL.) and lung compliance (Cdyn) bronchoconstriction was evoked with aerosolized methacholine (3 mg/ml, 10 mg/ml and 30 mg/ml). The difference between baseline readings and that obtained after methacholine were used to calculate Cdyn and RL. Bronchoalveolar lavage (BAL) was performed immediately after the lung function measurements. BAL was analysed for protein content (as a measure of leakage) and leukocyte number, differential cell counts were performed to indicate what subsets of leukocytes were best affected by the drugs.

[2] = target: T2, recombinant human eotaxin (CCL11) (Homo sapiens, UniProt P51671); assay: BIAcore inhibition of eotaxin-1 binding to immobilized heparin; conditions: BIAcore chip, FIG. 3D
T2 construct: host or cells: E. coli
Source text: The optical phenomenon of surface plasmon resonance is used to monitor physical interactions between molecules. Passing a solution of a potential protein ligand (e.g. IL-4, IL-5 or eotaxin) over a sensor surface to which a target (e.g. heparin) is coupled monitors the real-time binding of protein ligands to the immobilized target. Detection is achieved by measuring refractive index changes very close to the sensor surface. When the refractive index is altered, the angle at which plasmon resonance occurs changes and this change directly correlates with the amount of protein interacting with the surface. A BIAcore 2000 is conveniently used. […]
Biotinylated heparin is immobilized on the biosensor chip. […] Solutions containing potential protein ligands of interest are injected over the sensor chip surface, and the binding is measured in real time (Fernig, In: Proteoglycan protocols, Ed. R. V. Iozzo, Humana Press, Totowa, N.J., USA, 2001). Baculovirus expressed recombinant human IL-4 (rhIL-4) and baculovirus expressed recombinant human IL-5 (rhIL-5) readily bind to heparin immobilized by this method (see PCT/AU2005/000551). […] Similarly, recombinant human eotaxin (CCL11) expressed in E. coli binds readily to immobilized heparin and binding is specific as there is little eotaxin binding to sensor chips lacking heparin. […]

T2 sequence (P51671 24-97): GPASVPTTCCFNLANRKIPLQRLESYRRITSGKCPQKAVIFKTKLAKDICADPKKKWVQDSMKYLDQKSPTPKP

Question: Which results are given for Pentosan polysulfate [PPS]?
Answer: Inhibition of IL-4 dependent proliferation of TF-1.8 cells (in words) (IL-4; dose-response, FIG. 5): markedly inhibits; Percentage Inhibition of IL-4 induced TF-1.8 cell proliferation (IL-4; inhibitor 5.0 μg/ml, IL-4 2.5 ng/ml, 48 hours): 58%; Inhibition of RL (airway resistance) ([1]; 0.5 mg/kg, FIG. 15A): 103%; Inhibition of RL (airway resistance) ([1]; 2.4 mg/kg, FIG. 15A): 94%; Inhibition of RL (airway resistance) ([1]; 10 mg/kg, FIG. 15A): 100%; Total number of infiltrating leukocytes in the bronchoalveolar fluid (in words) ([1]; 0.1, 0.5, 2.5, 10 mg/kg intra-tracheal, FIG. 14B): significantly reduced; Total protein content in the bronchoalveolar fluid ([1]; 0.1, 0.5, 2.5, 10 mg/kg intra-tracheal, all except 0.1 mg/kg significant (P<0.05), dose dependent, FIG. 14A): significantly reduced; Inhibitory effect on RL (airway resistance) ([1]; all doses, after 10 mg/ml methacholine, FIG. 15A): more than 90%; Effect on alterations of lung compliance (Cdyn) ([1]; represented as an increase in lung compliance, FIG. 15B): Inhibitory effects; IC50 [2]: ~15 nM
